Laboratory results: patent US10155742B2, “Halofuginol derivatives and their use in cosmetic and pharmaceutical compositions” (President and Fellows of Harvard College, priority 2012, dated 2018)

Key:
[1] = target: T1, ProRS (amino acids 998-1513 of human EPRS) (Homo sapiens, UniProt P07814); assay: [3H]-HFol binding to immobilized ProRS; details: FIG. 3A
T1 construct: Purified 6-his tagged ProRS (amino acids 998-1513 of human EPRS) was immobilized on N-NTA beads; made in house; host or cells: E. coli BL21(DE3), plasmid pKS509
T1 sequence (P07814 998-1512 limits assumed): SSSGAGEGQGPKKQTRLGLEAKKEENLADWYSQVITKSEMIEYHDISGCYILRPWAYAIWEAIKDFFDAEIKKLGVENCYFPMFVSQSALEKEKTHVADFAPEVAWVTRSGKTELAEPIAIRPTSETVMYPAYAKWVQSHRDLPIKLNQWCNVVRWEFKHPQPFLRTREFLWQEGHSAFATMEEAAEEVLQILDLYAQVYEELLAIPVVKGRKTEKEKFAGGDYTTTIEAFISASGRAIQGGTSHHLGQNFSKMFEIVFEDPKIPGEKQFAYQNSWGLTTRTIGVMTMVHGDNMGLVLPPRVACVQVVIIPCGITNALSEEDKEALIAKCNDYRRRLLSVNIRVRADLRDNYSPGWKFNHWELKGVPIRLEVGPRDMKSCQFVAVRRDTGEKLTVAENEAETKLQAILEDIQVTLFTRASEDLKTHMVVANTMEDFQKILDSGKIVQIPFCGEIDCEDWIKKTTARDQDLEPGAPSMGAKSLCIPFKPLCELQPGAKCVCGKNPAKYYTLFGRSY
Experimental: B) [^3H]-HFol binding was assayed as described above in the presence of indicated concentrations of proline. […] IMR90 lung fibroblasts were treated with a siRNAs directed against EPRS (Dharmacon) or a control siRNA mixture for 48 hours, and then treated with HF for 2 hours (pGCN2) and examined for EPRS protein levels, GCN2 total protein and phospho-GCN2 by Western blot. D) EPRS depleted IMR90 cells were compared to control cells with respect to HF induction of the AAR marker CHOP by Q-PCR. Equal concentrations of total cellular protein were loaded in each Western blot lane. CHOP expression was standardized to expression of phosphoglycerate kinase 1 (PGK1) and glyceraldehyde-3-phosphate-dehydrogenase (GAPDH). Data shown are representative of three separate experiments.
Prolyl sulfamoyl adenosine (ProSAd) or alanyl sulfamoyl adenosine (AlaSAd), analogs of the corresponding aminoacyl adenylate, were coincubated with [^3H]-HFol as in FIG. 2. […] Binding of [^3H]-HFol was assayed as in FIG. 3, except that the nucleotide type and concentration was varied as indicated.
To examine HF binding to ProRS, ^3H HFol was synthesized by American Radiochemicals (St. Louis) by reduction of MAZ1310 (3) at the ketone with NaB^3H4, followed by removal of the Boc protecting group with 10% trifluoroacetic acid in dichloromethane, and HPLC purification of the ^3H HFol. 100 nM ^3H HFol was incubated with ProRS immobilized on Ni-NTA beads (Pierce) in 50 mM Tris pH 7.5, 5 mM MgCl2, 20 mM Imidazole, 1 mM DTT, 10% glycerol, and nucleotides, proline, or HF derivatives at room temperature for 10 minutes as indicated. After incubation, beads were washed twice with ice-cold wash buffer (50 mM Tris 7.5; 20 mM Imidazole; 1 mM DTT, 20% glycerol). ^3H HFol bound after washing was measured by liquid scintillation counting. Ni-NTA beads incubated with E. coli extracts lacking tagged ProRS were used as a background reference in all experiments.

[2] = Anti-HF ELISA of intracellular HF levels; type: in vitro ADME, mouse
Experimental: MEFs were incubated with the indicated concentration of HF in the presence or absence of 2 mM proline for 2 hours, washed twice in cold PBS, and lysed in 1% NP40. Lysates were then tested for HF levels in comparison to a standard curve using known concentrations of HF with an anti-HF antibody based ELISA assay (see Examples). […] Similar results were obtained in three separate experiments.
Polyclonal anti-HF antibody was raised by immunizing rabbits with KLH coupled to an HF derivative (MAZ1356, FIG. 1) containing a linker attached to the quinazolinone and terminated by a primary amino group. Antibody was affinity purified using MAZ1356 linked to NHS-agarose. For the ELISA assay (FIG. 17), MAZ1356 was coupled to 96-well Reacti-bind Plates (Pierce). After binding, plates were blocked with 10% goat serum in PBS/0.2% Tween-20 (PBST). […] Captured antibody was quantitated using TMB based colorimetric detection (Pierce), and a standard curve for HF concentration fitted from the colorimetric data. […] To determine HF concentration in cells, 8 μl of cleared lysate (or control buffer) was incubated with anti-HF antibody in MAZ1356 bound wells, and captured antibody detected and quantitated as described above. HF concentration was then determined by fitting colorimetry results with cell samples to a standard curve of HF concentration. […]

## O=C(C[C@H]1NCCC[C@@H]1O)Cn1cnc2cc(Br)c(Cl)cc2c1=O (racemic) [HF, 7-bromo-6-chloro-3-[3-(3-hydroxy-2-piperidinyl)-2-oxopropyl]-4(3H)-quinazolinone]
[1]
  competition of [3H]-HFol binding to ProRS: competed
[2]; 2 mM proline, 2 hours, FIG. 17
  effect of proline addition on intracellular accumulation of HF: not affected
[2]; MEFs incubated with 20 nM HF for 2 hours, packed cell volume estimated as 4 μl
  absolute HF concentration inside cells: ~800 nM
